Reference: PubChem BioAssay (NCI)
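Dose response: 5 concentrations. Exposure: 48 h. Format: 96-well plates. Endpoint: linear interpolation; highest concentration if not reached. Here, GI50 denotes the concentration required for 50% inhibition of growth. Definition used: TGI = concentration required for complete inhibition of growth.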

Legend:
Experiment in all cases: inhibition of tumour cell growth, NCI panel, 48 h
786-0 renal = tested on: 786-0 renal
A498 renal = tested on: A498 renal
A549 NSCLC = tested on: A549 NSCLC
ACHN renal = tested on: ACHN renal
BT-549 breast = tested on: BT-549 breast
CAKI-1 renal = tested on: CAKI-1 renal
CCRF-CEM leukemia = tested on: CCRF-CEM leukemia
COLO 205 colon = tested on: COLO 205 colon
DU-145 prostate = tested on: DU-145 prostate
EKVX NSCLC = tested on: EKVX NSCLC
HCC-2998 colon = tested on: HCC-2998 colon
HCT-116 colon = tested on: HCT-116 colon
HCT-15 colon = tested on: HCT-15 colon
HL-60(TB) leukemia = tested on: HL-60(TB) leukemia
HOP-62 NSCLC = tested on: HOP-62 NSCLC
HS 578T breast = tested on: HS 578T breast
HT29 colon = tested on: HT29 colon
IGROV1 ovarian = tested on: IGROV1 ovarian
K-562 leukemia = tested on: K-562 leukemia
KM12 colon = tested on: KM12 colon
LOX IMVI melanoma = tested on: LOX IMVI melanoma
M14 melanoma = tested on: M14 melanoma
MALME-3M melanoma = tested on: MALME-3M melanoma
MCF7 breast = tested on: MCF7 breast
MDA-MB-231 breast = tested on: MDA-MB-231 breast
MDA-MB-435 = tested on: MDA-MB-435
MOLT-4 leukemia = tested on: MOLT-4 leukemia
NCI-H226 lung = tested on: NCI-H226 lung
NCI-H23 lung = tested on: NCI-H23 lung
NCI-H460 lung = tested on: NCI-H460 lung
NCI-H522 lung = tested on: NCI-H522 lung
NCI/ADR-RES ovarian = tested on: NCI/ADR-RES ovarian
OVCAR-3 ovarian = tested on: OVCAR-3 ovarian
OVCAR-4 ovarian = tested on: OVCAR-4 ovarian
OVCAR-5 ovarian = tested on: OVCAR-5 ovarian
OVCAR-8 ovarian = tested on: OVCAR-8 ovarian
PC-3 prostate = tested on: PC-3 prostate
RPMI-8226 leukemia = tested on: RPMI-8226 leukemia
RXF 393 renal = tested on: RXF 393 renal
SF-268 CNS = tested on: SF-268 CNS
SF-295 CNS = tested on: SF-295 CNS
SF-539 CNS = tested on: SF-539 CNS
SK-MEL-2 melanoma = tested on: SK-MEL-2 melanoma
SK-MEL-28 melanoma = tested on: SK-MEL-28 melanoma
SK-MEL-5 melanoma = tested on: SK-MEL-5 melanoma
SK-OV-3 ovarian = tested on: SK-OV-3 ovarian
SN12C renal = tested on: SN12C renal
SNB-19 CNS = tested on: SNB-19 CNS
SNB-75 CNS = tested on: SNB-75 CNS
SR leukemia = tested on: SR leukemia
SW-620 colon = tested on: SW-620 colon
TK-10 renal = tested on: TK-10 renal
U251 CNS = tested on: U251 CNS
UACC-257 melanoma = tested on: UACC-257 melanoma
UACC-62 melanoma = tested on: UACC-62 melanoma
UO-31 renal = tested on: UO-31 renal

`Cc1c(C(=O)O)n(-c2ccc(Cl)cc2)c2ncnc(N)c12` was tested. Which GI50 (786-0 renal) did it give?
Its GI50 is 21.1 µM.

What about the TGI (786-0 renal) of the same compound?
Its TGI is 56.2 µM.

What about the GI50 (A498 renal) of the same compound?
Its GI50 is 19.4 µM.

And the TGI (A498 renal)?
Its TGI is 52.2 µM.

What about the GI50 (A549 NSCLC) of the same compound?
Its GI50 is 17.4 µM.

What about the TGI (A549 NSCLC) of the same compound?
Its TGI is 65.3 µM.

And the GI50 (ACHN renal)?
Its GI50 is 22.6 µM.

And the TGI (ACHN renal)?
The TGI was 96.9 µM.

And the GI50 (BT-549 breast)?
The GI50 was 21.7 µM.

And the TGI (BT-549 breast)?
The TGI was 58.7 µM.

And the GI50 (CAKI-1 renal)?
Its GI50 is 19.2 µM.

What about the TGI (CAKI-1 renal) of the same compound?
The TGI was 67.8 µM.

What about the GI50 (CCRF-CEM leukemia) of the same compound?
Its GI50 is 27.8 µM.

What about the TGI (CCRF-CEM leukemia) of the same compound?
Its TGI is 90.5 µM.

And the GI50 (COLO 205 colon)?
The GI50 was 21.7 µM.

What about the TGI (COLO 205 colon) of the same compound?
Its TGI is 43.3 µM.

And the GI50 (DU-145 prostate)?
Its GI50 is 24.1 µM.

What about the TGI (DU-145 prostate) of the same compound?
The TGI was 75.4 µM.

What about the GI50 (EKVX NSCLC) of the same compound?
Its GI50 is 17.2 µM.

And the TGI (EKVX NSCLC)?
The TGI was 56.1 µM.

What about the GI50 (HCC-2998 colon) of the same compound?
The GI50 was 23.6 µM.

And the TGI (HCC-2998 colon)?
The TGI was 57.1 µM.

And the GI50 (HCT-116 colon)?
The GI50 was 20.5 µM.

What about the TGI (HCT-116 colon) of the same compound?
The TGI was 47.7 µM.

What about the GI50 (HCT-15 colon) of the same compound?
Its GI50 is 24.1 µM.

And the TGI (HCT-15 colon)?
Its TGI is 96.9 µM.

What about the GI50 (HL-60(TB) leukemia) of the same compound?
The GI50 was 37.3 µM.

What about the TGI (HL-60(TB) leukemia) of the same compound?
Its TGI is > 100 µM.

What about the GI50 (HOP-62 NSCLC) of the same compound?
Its GI50 is 20 µM.

What about the TGI (HOP-62 NSCLC) of the same compound?
The TGI was 58.6 µM.

And the GI50 (HS 578T breast)?
The GI50 was 23.1 µM.

And the TGI (HS 578T breast)?
Its TGI is 69.6 µM.

And the GI50 (HT29 colon)?
The GI50 was 22.6 µM.

And the TGI (HT29 colon)?
Its TGI is 51 µM.

And the GI50 (IGROV1 ovarian)?
Its GI50 is 14.6 µM.

And the TGI (IGROV1 ovarian)?
Its TGI is > 100 µM.

And the GI50 (K-562 leukemia)?
The GI50 was 21.4 µM.

What about the TGI (K-562 leukemia) of the same compound?
The TGI was > 100 µM.

And the GI50 (KM12 colon)?
The GI50 was 29.9 µM.

And the TGI (KM12 colon)?
The TGI was > 100 µM.

What about the GI50 (LOX IMVI melanoma) of the same compound?
The GI50 was 30.1 µM.

And the TGI (LOX IMVI melanoma)?
The TGI was > 100 µM.

And the GI50 (M14 melanoma)?
Its GI50 is 22.6 µM.

And the TGI (M14 melanoma)?
Its TGI is 53.6 µM.

And the GI50 (MALME-3M melanoma)?
The GI50 was 31.5 µM.

And the TGI (MALME-3M melanoma)?
The TGI was 75.7 µM.

What about the GI50 (MCF7 breast) of the same compound?
The GI50 was > 100 µM.

And the TGI (MCF7 breast)?
The TGI was > 100 µM.

And the GI50 (MDA-MB-231 breast)?
Its GI50 is 18 µM.

And the TGI (MDA-MB-231 breast)?
The TGI was 70.1 µM.

What about the GI50 (MDA-MB-435) of the same compound?
The GI50 was 33.2 µM.

And the TGI (MDA-MB-435)?
Its TGI is > 100 µM.

What about the GI50 (MOLT-4 leukemia) of the same compound?
The GI50 was 31.2 µM.

What about the TGI (MOLT-4 leukemia) of the same compound?
The TGI was > 100 µM.

What about the GI50 (NCI-H226 lung) of the same compound?
Its GI50 is 14.9 µM.

And the TGI (NCI-H226 lung)?
Its TGI is 50.2 µM.

And the GI50 (NCI-H23 lung)?
The GI50 was 16.7 µM.

What about the TGI (NCI-H23 lung) of the same compound?
Its TGI is 37.2 µM.

What about the GI50 (NCI-H460 lung) of the same compound?
The GI50 was 14.5 µM.

And the TGI (NCI-H460 lung)?
Its TGI is 37.8 µM.

And the GI50 (NCI-H522 lung)?
The GI50 was 16 µM.

And the TGI (NCI-H522 lung)?
Its TGI is 50.5 µM.

What about the GI50 (NCI/ADR-RES ovarian) of the same compound?
The GI50 was 25.1 µM.

What about the TGI (NCI/ADR-RES ovarian) of the same compound?
Its TGI is > 100 µM.

What about the GI50 (OVCAR-3 ovarian) of the same compound?
Its GI50 is 17.5 µM.

What about the TGI (OVCAR-3 ovarian) of the same compound?
Its TGI is > 100 µM.

And the GI50 (OVCAR-4 ovarian)?
The GI50 was 48.4 µM.

What about the TGI (OVCAR-4 ovarian) of the same compound?
The TGI was > 100 µM.

What about the GI50 (OVCAR-5 ovarian) of the same compound?
Its GI50 is 46.4 µM.

And the TGI (OVCAR-5 ovarian)?
The TGI was > 100 µM.

And the GI50 (OVCAR-8 ovarian)?
The GI50 was 14 µM.

What about the TGI (OVCAR-8 ovarian) of the same compound?
Its TGI is 59.9 µM.

And the GI50 (PC-3 prostate)?
The GI50 was 19.4 µM.

What about the TGI (PC-3 prostate) of the same compound?
The TGI was 54.6 µM.

And the GI50 (RPMI-8226 leukemia)?
The GI50 was 12.4 µM.

And the TGI (RPMI-8226 leukemia)?
Its TGI is 35.8 µM.

And the GI50 (RXF 393 renal)?
The GI50 was 13.6 µM.

And the TGI (RXF 393 renal)?
The TGI was 39.5 µM.

What about the GI50 (SF-268 CNS) of the same compound?
The GI50 was 12.2 µM.

What about the TGI (SF-268 CNS) of the same compound?
Its TGI is 38.9 µM.

And the GI50 (SF-295 CNS)?
The GI50 was 28.7 µM.

What about the TGI (SF-295 CNS) of the same compound?
The TGI was > 100 µM.

What about the GI50 (SF-539 CNS) of the same compound?
The GI50 was 22.7 µM.

And the TGI (SF-539 CNS)?
Its TGI is 48.6 µM.

And the GI50 (SK-MEL-2 melanoma)?
Its GI50 is 46.9 µM.

And the TGI (SK-MEL-2 melanoma)?
Its TGI is > 100 µM.

What about the GI50 (SK-MEL-28 melanoma) of the same compound?
The GI50 was 64.8 µM.

And the TGI (SK-MEL-28 melanoma)?
The TGI was > 100 µM.

And the GI50 (SK-MEL-5 melanoma)?
The GI50 was 16.2 µM.

And the TGI (SK-MEL-5 melanoma)?
Its TGI is 29.9 µM.

What about the GI50 (SK-OV-3 ovarian) of the same compound?
The GI50 was 43.9 µM.

And the TGI (SK-OV-3 ovarian)?
Its TGI is 75.1 µM.

What about the GI50 (SN12C renal) of the same compound?
Its GI50 is 19.5 µM.

And the TGI (SN12C renal)?
Its TGI is 57.1 µM.

And the GI50 (SNB-19 CNS)?
The GI50 was 36.4 µM.

What about the TGI (SNB-19 CNS) of the same compound?
Its TGI is 97.6 µM.

What about the GI50 (SNB-75 CNS) of the same compound?
The GI50 was 62 µM.

And the TGI (SNB-75 CNS)?
Its TGI is > 100 µM.

And the GI50 (SR leukemia)?
The GI50 was 16.6 µM.

And the TGI (SR leukemia)?
The TGI was > 100 µM.

And the GI50 (SW-620 colon)?
Its GI50 is 32.3 µM.

And the TGI (SW-620 colon)?
Its TGI is > 100 µM.

And the GI50 (TK-10 renal)?
The GI50 was 21.8 µM.

What about the TGI (TK-10 renal) of the same compound?
Its TGI is 70.1 µM.

And the GI50 (U251 CNS)?
The GI50 was 31.8 µM.

What about the TGI (U251 CNS) of the same compound?
Its TGI is > 100 µM.

What about the GI50 (UACC-257 melanoma) of the same compound?
Its GI50 is 36.2 µM.

What about the TGI (UACC-257 melanoma) of the same compound?
Its TGI is > 100 µM.

And the GI50 (UACC-62 melanoma)?
Its GI50 is 17 µM.

What about the TGI (UACC-62 melanoma) of the same compound?
The TGI was 41.9 µM.

And the GI50 (UO-31 renal)?
Its GI50 is 10.3 µM.

And the TGI (UO-31 renal)?
The TGI was > 100 µM.
